In article PMC12036557, “Functional Imaging of CYP3A4 at Multiple Dimensions Using an AI‐Driven High Performance Fluorogenic Substrate” (Small (Weinheim an Der Bergstrasse, Germany), 2025):

Target: T1, CYP3A4 (Homo sapiens, UniProt P08684)
Test: NFa-based screening and characterizing of hCYP3A4 inhibitors in HLMs
Details: human, human liver microsomes, pH 7.4, probe NFa (4-hydroxylation to 4-HNFa)

T1 sequence (P08684 whole entry): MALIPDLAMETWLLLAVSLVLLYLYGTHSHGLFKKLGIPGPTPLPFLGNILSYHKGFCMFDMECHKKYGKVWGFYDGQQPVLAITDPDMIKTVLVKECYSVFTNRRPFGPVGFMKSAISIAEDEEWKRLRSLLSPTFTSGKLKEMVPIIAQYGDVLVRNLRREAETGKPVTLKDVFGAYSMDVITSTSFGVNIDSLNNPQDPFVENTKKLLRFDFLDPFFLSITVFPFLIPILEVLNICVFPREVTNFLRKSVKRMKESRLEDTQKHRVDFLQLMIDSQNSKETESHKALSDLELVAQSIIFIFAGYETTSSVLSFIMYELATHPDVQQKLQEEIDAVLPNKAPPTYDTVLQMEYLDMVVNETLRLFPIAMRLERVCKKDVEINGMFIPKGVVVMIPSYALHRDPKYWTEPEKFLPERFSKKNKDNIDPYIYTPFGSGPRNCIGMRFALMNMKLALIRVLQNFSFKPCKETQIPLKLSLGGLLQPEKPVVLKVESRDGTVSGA

SMILES	activity at 30 min, 1 µM [%]
COc1cc2c(cc1OC)C(=O)/C(=C/c1ccco1)C2 [D2, (E)-2-(Furan-2-ylmethylene)-5,6-dimethoxy-2,3-dihydro-1H-inden-1-one]	102
O=C1c2cccc(O)c2C(=O)c2cccc(O)c21 [1,5-Dihydroxyanthraquinone]	99.8
O=C(O)c1ccc2c(c1)C(=O)c1ccccc1C2=O [Anthraquinone-2-carboxylic acid]	98
O=C1c2cccc(Cl)c2C(=O)c2c(Cl)cccc21 [1,8-Dichloroanthraquinone]	85.5
CC(C)=CCc1cc2c(cc1O)O[C@H](c1ccc(O)cc1)CC2=O [Bavachin]	71.6
COc1ccc(-c2cc(=O)c3c(O)cc(O)cc3o2)cc1 [Acacetin]	49.9
Nc1cccc2c1C(=O)c1ccccc1C2=O [1-Aminoanthraquinone]	62.6
CCc1ccc2c(c1)C(=O)c1ccccc1C2=O [2-Ethyl anthraquinone]	79.8
COc1cc(C[C@H]2C(=O)OC[C@@H]2Cc2ccc(OC)c(OC)c2)ccc1O [Arctigenin]	103
O=C(O)c1ccc(O)c(O)c1 [Protocatechuic acid]	109
O=C1c2ccc(O)cc2C(=O)c2ccc(O)cc21 [2,6-Dihydroxyanthraquinone]	88.8
COc1cc2c(cc1OC)C(=O)/C(=C/c1ccccc1C)C2 [D4, (E)-5,6-Dimethoxy-2-(2-methylbenzylidene)-2,3-dihydro-1H-inden-1-one]	58.1
COc1ccc(-c2coc3cc(O)ccc3c2=O)cc1O [Calycosin]	99.3
COc1cc(O)cc2c1C(=O)C[C@@H](c1ccccc1)O2 [Alpinetin]	95.7
Cc1ccc2c(c1)C(=O)c1ccccc1C2=O [2-Methyl anthraquinone]	83.6
O=C1c2ccccc2C(=O)c2c(O)cccc21 [1-Hydroxy anthraquinone]	90.5
COc1cc2c(cc1OC)C(=O)/C(=C/c1ccc(-c3ccccc3)cc1)C2 [D3, (E)-2-([1,1'-Biphenyl]-4-ylmethylene)-5,6-dimethoxy-2,3-dihydro-1H-inden-1-one]	75.9
O=C1c2ccc(Br)cc2C(=O)c2ccc(Br)cc21 [2,6-Dibromoanthraquinone]	85.5

Further lines, results first:

activity at 30 min, 1 µM [%]	SMILES
104	COc1cc2c(=O)c(-c3ccc(O)cc3)coc2cc1O [Glycitein]
54	COc1cc(O)c(C(=O)/C=C/c2ccc3nccnc3c2)c(OC)c1 [D18, (E)-1-(2-hydroxy-4,6-dimethoxyphenyl)-3-(quinoxalin-6-yl)prop-2-en-1-one]
85.3	O=c1cc(-c2ccccc2)oc2c(O)c(O)cc(O)c12 [Norwogonin]
99.3	C[C@H]1[C@H](C)CC[C@]2(C(=O)O)CC[C@]3(C)C(=CC[C@@H]4[C@@]5(C)CC[C@H](O)C(C)(C)[C@@H]5CC[C@]43C)[C@H]12 [Ursolic acid]
97.3	O=C(CCc1ccc(O)cc1)c1c(O)cc(O)cc1O [Phloretin]
64.5	O=C(/C=C/c1ccc2nccnc2c1)c1ccccc1O [D15, (E)-1-(2-hydroxyphenyl)-3-(quinoxalin-6-yl)prop-2-en-1-one]
66.9	CC1(C)[C@@H](O)CC[C@]2(C)[C@H]3C(=O)C=C4[C@@H]5C[C@@](C)(C(=O)O)CC[C@]5(C)CC[C@@]4(C)[C@]3(C)CC[C@@H]12 [Glycyrrhetinic acid]
87.9	CC(C)=CCc1cc(-c2coc3cc(O)ccc3c2=O)ccc1O [Neobavaisoflavone]
72.1	Oc1ccc(/C=C/c2cc(O)cc(O)c2)cc1 [Resveratrol]
98.9	COc1ccc(-c2coc3cc(O)ccc3c2=O)cc1 [Formononetin]
85	COc1cc(O)c(C(=O)/C=C/c2ccc3ccccc3c2)c(OC)c1OC [D9, (E)-1-(6-hydroxy-2,3,4-trimethoxyphenyl)-3-(naphthalen-2-yl)prop-2-en-1-one]
54.2	CC(C)=CCc1c(O)ccc(C(=O)/C=C/c2ccc(O)cc2)c1O [Isobavachalcone]
94	O=c1c(O)c(-c2ccccc2)oc2cc(O)cc(O)c12 [Galangin]
95.7	COc1ccccc1C(=O)/C=C/c1ccc2ccccc2c1 [D7, (E)-1-(2-methoxyphenyl)-3-(naphthalen-2-yl)prop-2-en-1-one]
59.9	COc1cc(O)c(CC=C(C)C)c(O)c1C(=O)/C=C/c1ccc(O)cc1 [Xanthohumol]
73.5	Cc1c(O)c(C)c2c(c1O)C(=O)C[C@@H](c1ccc(O)cc1)O2 [Farrerol]
67.8	COc1ccc(/C=C2\Cc3cc(OC)c(OC)cc3C2=O)cc1 [D6, (E)-5,6-Dimethoxy-2-(4-methoxybenzylidene)-2,3-dihydro-1H-inden-1-one]
103	COc1c(OC)c2occc2c2oc(=O)ccc12 [Pimpinellin]
63.9	COc1cccc(C(=O)/C=C/c2ccc3nccnc3c2)c1 [D14, (E)-1-(3-methoxyphenyl)-3-(quinoxalin-6-yl)prop-2-en-1-one]
100	COc1cccc(O)c1C(=O)/C=C/c1ccc2nc(Cl)ccc2c1 [D16, (E)-3-(2-chloroquinolin-6-yl)-1-(2-hydroxy-6-methoxyphenyl)prop-2-en-1-one]
92.8	COc1cc2c(cc1OC)[C@@H](Cc1ccc(Oc3cc(C[C@@H]4c5cc(OC)c(OC)cc5CCN4C)ccc3O)cc1)N(C)CC2 [Dauricine]
91.1	O=c1c(O)c(-c2ccc(O)cc2)oc2c(O)c(O)cc(O)c12 [Herbacetin]
67.9	O=c1c(O)c(-c2ccc(O)cc2)oc2cc(O)cc(O)c12 [Kaempferol]
72.3	COc1cc2c(cc1OC)C(=O)/C(=C/c1cccc(C)c1)C2 [D5, (E)-5,6-dimethoxy-2-(3-methylbenzylidene)-2,3-dihydro-1H-inden-1-one]
47.6	COc1cc(O)ccc1/C=C/C(=O)c1ccc(O)cc1 [Echinatin]
83.6	COc1ccc(C(=O)/C=C/c2ccc3nc(Cl)ccc3c2)c(O)c1 [D17, (E)-3-(2-chloroquinolin-6-yl)-1-(2-hydroxy-4-methoxyphenyl)prop-2-en-1-one]
95.5	COc1c(O)cc2occ(-c3ccc(O)cc3)c(=O)c2c1O [Tectorigenin]
88	O=C(/C=C/c1ccc2ccccc2c1)c1ccccc1O [D8, (E)-1-(2-hydroxyphenyl)-3-(naphthalen-2-yl)prop-2-en-1-one]
70	COc1cc(O)c(C(=O)/C=C/c2ccc3ncccc3c2)c(OC)c1OC [D12, (E)-1-(6-hydroxy-2,3,4-trimethoxyphenyl)-3-(quinolin-6-yl)prop-2-en-1-one]

Target: T1, CYP3A4
Test: in vitro
Details: pH 7.4

SMILES	activity at 30 min, 1 µM [%]	activity at 1 µM [%]
COc1cc(C2Oc3cc([C@H]4Oc5cc(O)cc(O)c5C(=O)[C@@H]4O)ccc3OC2CO)ccc1O (some centres unmarked) [Silybin]	89	
COc1ccc2c(c[n+](C)c3c4cc5c(cc4ccc23)OCO5)c1OC [Chelerythrine]		89.6
COc1ccc([C@@H]2CC(=O)c3c(O)cc(O)cc3O2)cc1O [Hesperetin]	96.8	
COC[C@@]12CC[C@H](OC)[C@]34C(C([C@H](OC)[C@H]13)[C@]1(OC(C)=O)[C@H]3[C@@H](OC(=O)c5ccccc5)[C@](O)(C[C@H]34)[C@@H](OC)[C@@H]1O)N(C)C2 [Hypaconitine]		94.9
O=C1c2ccccc2C(=O)c2ccccc21 [Anthraquinone]	94.3	
O=C1C=CC[C@@H]2[C@H]3CCC[N+]4([O-])CCC[C@@H](CN12)[C@@H]34 (some centres unmarked) [Oxysophocarpine]		96.1
O=c1c(-c2ccc(O)cc2)coc2cc(O)ccc12 [Daidzein]	97.4	
CC1(C)CC[C@]2(C(=O)O)CC[C@]3(C)C(=CC[C@@H]4[C@@]5(C)CC[C@H](O)C(C)(C)[C@@H]5CC[C@]43C)[C@@H]2C1 [Oleanolic acid]		70.2
O=C1C[C@@H]2OCC=C3CN4CC[C@]56c7ccccc7N1[C@H]5[C@H]2[C@H]3C[C@H]46 [Strychnine]	96.3	
COc1ccc(-c2cc(=O)c3c(OC)c(OC)c(OC)c(OC)c3o2)cc1OC [Nobiletin]	102	
O=c1cccc2n1C[C@@H]1CNC[C@H]2C1 [Cytisine]		94.1
CC[C@@]1(O)C(=O)OCc2c1cc1n(c2=O)Cc2cc3ccccc3nc2-1 [Camptothecin]	93.8	
c1c2c(cc3c1OCO3)-c1cc3ccc4c(c3c[n+]1CC2)OCO4 [Coptisine]		77.9
CN1[C@@H]2CC[C@H]1C[C@@H](OC(=O)[C@H](CO)c1ccccc1)C2 [Hyoscyamine]		98
COc1cc2c(cc1OC)C(=O)/C(=C/c1ccccc1)C2 [D1, (E)-2-benzylidene-5,6-dimethoxy-2,3-dihydro-1H-inden-1-one]		88
O=C1C=CC[C@@H]2[C@H]3CCCN4CCC[C@@H](CN12)[C@@H]34 [Sophocarpine]	94.1	
CCN1C[C@]2(COC)[C@H](O)C[C@H](OC)[C@@]34[C@@H]5C[C@@]6(O)[C@H](OC(=O)c7ccccc7)[C@@H]5[C@@](OC(C)=O)([C@@H]([C@H](OC)[C@H]23)[C@@H]14)[C@@H](O)[C@@H]6OC [Aconitine]	94.8	
C=C1[C@H]2C[C@@]3([C@@H]1O)[C@@H](CC2=O)[C@]12[C@@H]4C[C@H]3[C@H]1N(CC)C[C@]4(C)CC[C@@H]2O [Songorine]		104
COc1ccc(-c2oc3c(CC=C(C)C)c(O)cc(O)c3c(=O)c2O)cc1 [Icaritin]	90.1	
COc1ccc2cc1Oc1ccc(cc1)C[C@H]1c3cc(c(OC)cc3CCN1C)Oc1c(OC)c(OC)cc3c1[C@H](C2)N(C)CC3 [Tetrandrine]	95.2	
COc1ccc(-c2cc(=O)c3c(O)c(OC)c(O)cc3o2)cc1 [Pectolinarigenin]	98	
